What was measured:
α1b-AR = molecular target: T1, α1b-AR (Homo sapiens, UniProt P35368); test: radioligand ([125I]-HEAT) receptor binding assay, COS cell membranes expressing cloned receptor; conditions: [125I]-HEAT 50 pM, 1 hour room temperature
T1 construct: expressed in transfected cells; host or cells: COS cells, pcDNA3 vector, transient DEAE-dextran transfection
T1 sequence (P35368 1-520): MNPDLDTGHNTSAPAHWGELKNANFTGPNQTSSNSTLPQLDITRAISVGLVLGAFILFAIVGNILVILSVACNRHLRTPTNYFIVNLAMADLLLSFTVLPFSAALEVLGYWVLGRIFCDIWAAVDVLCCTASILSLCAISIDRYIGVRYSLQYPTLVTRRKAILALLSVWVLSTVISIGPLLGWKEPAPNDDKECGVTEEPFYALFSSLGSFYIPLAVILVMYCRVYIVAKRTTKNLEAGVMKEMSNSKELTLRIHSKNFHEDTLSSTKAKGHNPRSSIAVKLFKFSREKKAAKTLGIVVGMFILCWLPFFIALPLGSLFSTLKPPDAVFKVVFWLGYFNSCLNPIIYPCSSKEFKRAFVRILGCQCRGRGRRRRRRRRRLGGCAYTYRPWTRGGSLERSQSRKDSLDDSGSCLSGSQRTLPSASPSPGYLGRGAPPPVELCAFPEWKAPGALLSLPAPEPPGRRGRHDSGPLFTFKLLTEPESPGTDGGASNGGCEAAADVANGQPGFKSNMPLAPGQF
From the text: (§1) The first assay tested the ability of compounds of Formula I to bind to membrane bound receptors α1a-AR, α1b-AR and α1d-AR.
(§2) The DNA sequences of the three cloned human α1-AR subtypes have been published. […] We used published DNA sequence information to design primers for use in RT-PCR amplification of each subtype to obtain cloned cDNAs. Human poly A+ RNA was obtained from commercially available sources and included hippocampus and prostate samples, sources which have been cited in the literature. For the primary screen a radioligand binding assay was used which employed membrane preparations from cells expressing the individual cloned receptor cDNAs. Radiolabeled ligands with binding activity on all three subtypes (non-selective) are commercially available ([125I]-HEAT, [3H]-prazosin). Each α1 receptor subtype was cloned from poly A+ RNA by the standard method of reverse transcription-polymerase chain reaction (RT-PCR). The following sources of polyA+ RNA were used for the cloning of the α1 receptor subtypes: α1a-AR, human hippocampus and prostate, α1b-AR, human hippocampus, α1d-AR, human hippocampus. The resulting cDNAs were cloned into the pcDNA3 mammalian expression vector (Invitrogen Corp., San Diego Calif.). Each DNA was sequenced for verification and to detect any possible mutations introduced during the amplification process. Any deviation in sequence from the published consensus for each receptor subtype was corrected by site-directed mutagenesis.
(§3) The three α1-AR subtypes (a, b, d) were transfected into COS cells using a standard DEAE-dextran procedure with a chloroquine shock. In this procedure, each tissue culture dish (100 mm) was inoculated with 3.5×10^6 cells and transfected with 10 μg of DNA. Approximately 72 hours post-transfection, the cells were harvested and COS membranes were prepared. Transfected COS cells from 25 plates (100 mm) were scraped and suspended in 15 mL of TE buffer (50 mM Tris-HCl, 5 mM EDTA, pH 7.4). The suspension was disrupted with a homogenizer. It was then centrifuged at 1000× g for 10 minutes at 4° C. The supernatant was centrifuged at 34,500× g for 20 minutes at 4° C. The pellet was resuspended in 5 mL TNE buffer (50 mM Tris-HCl, 5 mM EDTA, 150 mM NaCl, pH 7.4). The resulting membrane preparation was aliquoted and stored at −70° C. The protein concentration was determined following membrane solubilization with TritonX-100.
(§4) The ability of each compound to bind to each of the α1-AR subtypes was assessed in a receptor binding assay. [125I]-HEAT, a non-selective α1-AR ligand, was used as the radiolabeled ligand. Each well of a 96-well plate received: 140 μL TNE, […] [125I]-HEAT diluted in TNE (50,000 cpm; final concentration 50 pM), 10 μL test compound diluted in DMSO (final concentration 1 pM-10 μM), […] COS cell membrane preparation expressing one of the three α1-AR subtypes (0.05-0.2 mg membrane protein). The plate was incubated for 1 hour at room temperature and the reaction mixtures were filtered through a Packard GF/C Unifilter filter plate. The filter plate was dried for 1 hour in a vacuum oven. Scintillation fluid ([…]) was added to each well, and the filter plate was counted in a Packard Topcount scintillation counter. Data was analyzed using GraphPad Prism software.
(§5) Tables A through D list the IC50 values expressed in nanomolar concentration for select compounds of the invention in all receptor subtypes.

α1d-AR = molecular target: T2, α1d-AR (Homo sapiens, UniProt P25100); test: as above; conditions: [125I]-HEAT 50 pM, 1 hour room temperature
T2 construct: expressed in transfected cells; host or cells: COS cells, pcDNA3 vector, transient DEAE-dextran transfection
T2 sequence (P25100 1-572): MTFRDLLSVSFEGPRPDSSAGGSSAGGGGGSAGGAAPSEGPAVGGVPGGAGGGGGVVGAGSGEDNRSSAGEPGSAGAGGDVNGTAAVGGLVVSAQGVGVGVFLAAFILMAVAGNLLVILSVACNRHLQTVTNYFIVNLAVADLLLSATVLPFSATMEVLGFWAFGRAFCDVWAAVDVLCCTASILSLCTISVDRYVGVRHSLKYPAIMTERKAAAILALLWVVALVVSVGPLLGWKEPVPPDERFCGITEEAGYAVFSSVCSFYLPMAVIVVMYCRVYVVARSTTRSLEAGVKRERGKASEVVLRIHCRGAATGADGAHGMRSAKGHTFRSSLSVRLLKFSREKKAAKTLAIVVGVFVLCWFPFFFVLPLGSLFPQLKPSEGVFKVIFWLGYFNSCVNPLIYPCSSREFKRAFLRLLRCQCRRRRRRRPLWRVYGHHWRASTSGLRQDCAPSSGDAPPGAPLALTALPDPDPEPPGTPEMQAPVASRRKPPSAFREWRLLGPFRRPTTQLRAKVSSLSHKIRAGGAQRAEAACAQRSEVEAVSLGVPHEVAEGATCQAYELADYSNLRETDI
From the text: as §1, §2, §3, §4, §5

Q: For `COc1ccc(N2C(=O)c3ccc(C(=O)NCC(O)CN4CCN(c5ccccc5OC(C)C)CC4)cc3C2=O)cc1` (centres unmarked) [Compound 55], which IC50 (α1b-AR) is on record?
A: > 2000 nM

Q: And the IC50 (α1d-AR)?
A: 51 nM

From patent US6780994B2, “Phthalimido arylpiperazines useful in the treatment of benign prostatic hyperplasia” (Ortho-McNeil Pharmaceutical, Inc., priority 1998, dated 2004)
